# Laboratory results taken from patent publication US7767665B2, “1,3-benzothiazinone derivatives and use thereof” (Takeda Pharmaceutical Company Limited, priority 2001, dated 2010).
# Where a name gives a salt, the structure may show the parent alone.
row,melting point,SMILES
1,256.5 °C (dec.),"C[S+]([O-])c1cccc(-c2nc(=O)c3ccccc3s2)n1 (centres unmarked) [Example 44, 2-(6-Methylsulfinyl-2-pyridyl)-4H-1,3-benzothiazine-4-one]"
2,92.8 to 93.1 °C,CC(C)CCSc1ccc(-c2nc(=O)c3ccccc3s2)cn1 [Example 92]
3,189.9 to 190.7 °C,"CC(C)(C)OC(=O)CCc1cc(C#N)nc(-c2nc(=O)c3ccccc3s2)c1 [Example 355, tert-Butyl 3-[2-cyano-6-(4-oxo-4H-1,3-benzothiazin-2-yl)-4-pyridyl]propanoate]"
4,194.5 to 194.8 °C,"CN(CC(=O)O)C(=O)CCc1cccc(-c2nc(=O)c3ccccc3s2)n1 [Example 314, (Methyl{3-[6-(4-oxo-4H-1,3-benzothiazin-2-yl)-2-pyridyl]propanoyl}amino)acetic acid]"
5,199.7 to 199.9 °C,"Cc1ccnc(-c2nc(=O)c3ccccc3s2)c1 [Example 138, 2-(4-Methyl-2-pyridyl)-4H-1,3-benzothiazine-4-one]"
6,71 to 71.9 °C,"CC(C)(C)OC(=O)CCOCCCc1cccc(-c2nc(=O)c3ccccc3s2)n1 [Example 66, tert-Butyl 3-{3-[6-(4-oxo-4H-1,3-benzothiazin-2-yl)-2-pyridyl]propoxy}propanoate]"
7,226.4 to 227.4 °C,"O=C(NCc1cccc(-c2nc(=O)c3ccccc3s2)n1)C(F)(F)F [Example 209, 2,2,2-Trifluoro-N-[[6-(4-oxo-4H-1,3-benzothiazin-2-yl)-2-pyridyl]methyl]acetamide]"
8,210.5 to 211 °C,"O=C(O)[C@@H]1CCCN1C(=O)CCc1cccc(-c2nc(=O)c3ccccc3s2)n1 [Example 313, 1-{3-[6-(4-Oxo-4H-1,3-benzothiazin-2-yl)-2-pyridyl]propanoyl}proline]"
9,269.4 to 270.1 °C,"O=c1nc(-c2ccccn2)sc2ccc(Cl)cc12 [Example 9, 6-Chloro-2-(2-pyridyl)-4H-1,3-benzothiazine-4-one]"
10,137.7 to 139.1 °C,CCOP(=O)(CCc1ccnc(-c2nc(=O)c3ccc(Cl)cc3s2)c1)OCC
11,272.1 to 274.1 °C,"O=C(NC1CC1)c1ccc2c(=O)nc(-c3ccccn3)sc2c1 [Example 239, N-Cyclopropyl-4-oxo-2-(2-pyridyl)-4H-1,3-benzothiazine-7-carboxamide]"
12,151 to 153 °C,"O=c1nc(-c2cccc(CN3CCC(Cc4ccccc4)CC3)n2)sc2ccccc12 [Example 268, 2-{6-[(4-Benzyl-1-piperidyl)methyl]-2-pyridyl}-4H-1,3-benzo thiazine-4-one]"
13,245 to 245.8 °C,"Cc1cc(C)c2sc(-c3ccccn3)nc(=O)c2c1 [Example 24, 6,8-Dimethyl-2-(2-pyridyl)-4H-1,3-benzothiazine-4-one]"
14,67.7 to 68.5 °C,"CC(C)(C)OC(=O)CCOCCc1cccc(-c2nc(=O)c3ccccc3s2)n1 [Example 334, tert-Butyl 3-[2-(6-(4-oxo-4H-1,3-benzothiazin-2-yl)-2-pyridyl)ethoxy]propanoate]"
15,234.2 to 235.2 °C,"COc1ccc2c(=O)nc(-c3cccc(CCC(=O)O)n3)sc2c1 [Example 174, 3-[6-(7-Methoxy-4-oxo-4H-1,3-benzothiazin-2-yl)-2-pyridyl]propionic acid]"
16,208.5 to 209 °C,"O=C(NCc1cccc(-c2nc(=O)c3ccccc3s2)n1)c1cccs1 [Example 208, N-[[6-(4-Oxo-4H-1,3-benzothiazin-2-yl)-2-pyridyl]methyl]-2-thiophenecarboxamide]"

row,melting point,SMILES
1,192.9 to 193.1 °C,"O=C(O)CCc1cccc(-c2nc(=O)c3ccc(C(F)(F)F)cc3s2)n1 [Example 178, 3-[6-(4-Oxo-7-trifluoromethyl-4H-1,3-benzothiazin-2-yl)-2-pyridyl]propionic acid]"
2,187.5 to 189 °C,"O=c1nc(-c2cc(C3CCCN3)ccn2)sc2ccccc12 (centres unmarked) (as salt: trifluoroacetic acid salt) [Example 353, 2-[4-(2-Pyrrolidinyl)-2-pyridyl]-4H-1,3-benzothiazine-4-one trifluoroacetic acid salt]"
3,184.5 to 186.5 °C,"NCc1cccc(-c2nc(=O)c3ccccc3s2)n1 (as salt: trifluoroacetic acid salt) [Example 203, 2-[6-(Aminomethyl)-2-pyridyl]-4H-1,3-benzothiazine-4-one trifluoroacetic acid salt]"
4,160.4 to 161.1 °C,"O=c1nc(-c2ccnc(-c3cccs3)c2)sc2ccccc12 [Example 75, 2-[2-(2-Thienyl)-4-pyridyl]-4H-1,3-benzothiazine-4-one]"
5,169.8 to 170.3 °C,"Cc1cccc(-c2nc(=O)c3ccccc3s2)n1 [Example 136, 2-(6-Methyl-2-pyridyl)-4H-1,3-benzothiazine-4-one]"
6,120.2 to 120.7 °C,"CCOC(=O)C(C)Cc1cccc(-c2nc(=O)c3ccccc3s2)n1 (centres unmarked) [Example 315, Ethyl 2-methyl-3-[6-(4-oxo-4H-1,3-benzothiazin-2-yl)-2-pyridyl]propionate]"
7,124.5 to 125.1 °C,"CCCSc1cccc(-c2nc(=O)c3ccccc3s2)n1 [Example 59, 2-(6-Propylthio-2-pyridyl)-4H-1,3-benzothiazine-4-one]"
8,188.1 to 189.5 °C,"CS(=O)(=O)NCc1cccc(-c2nc(=O)c3ccccc3s2)n1 [Example 211, N-[[6-(4-Oxo-4H-1,3-benzothiazin-2-yl)-2-pyridyl]methyl]methanesulfonamide]"
9,221.9 to 222.5 °C,"Cc1ccc2c(=O)nc(-c3cccc(CCC(=O)O)n3)sc2c1 [Example 176, 3-[6-(7-Methyl-4-oxo-4H-1,3-benzothiazin-2-yl)-2-pyridyl]propionic acid]"
10,184.5 to 185.5 °C,"C[S+]([O-])Cc1cccc(-c2nc(=O)c3ccccc3s2)n1 (centres unmarked) [Example 168, 2-(6-Methylsulfinylmethyl-2-pyridyl)-4H-1,3-benzothiazine-4-one]"
11,212.4 to 212.6 °C,O=C1c2ccccc2C(=O)N1CCOc1ccc(-c2nc(=O)c3ccccc3s2)cn1 [Example 95]
12,273.5 °C (dec.),"Cc1cc(CCC(=O)O)cc(-c2nc(=O)c3ccc(Cl)cc3s2)n1 [Example 322, 3-[2-(7-Chloro-4-oxo-4H-1,3-benzothiazin-2-yl)-6-methyl-4-pyridyl]propionic acid]"
13,146 to 147 °C,"CCCCC[S+]([O-])c1cccc(-c2nc(=O)c3ccccc3s2)n1 (centres unmarked) [Example 155, 2-[6(n-Pentylsulfinyl)-2-pyridyl]-4H-1,3-benzothiazine-4-one]"
14,202.4 to 203.2 °C,"O=c1nc(-c2ccc[nH]2)sc2ccccc12 [Example 15, 2-(1H-Pyrrol-2-yl)-4H-1,3-benzothiazine-4-one]"
15,168.5 to 169.3 °C,"Cc1cc(CCC(=O)OC(C)(C)C)nc(-c2nc(=O)c3ccccc3s2)c1 [Example 189, tert-Butyl 3-[4-methyl-6-(4-oxo-4H-1,3-benzothiazin-2-yl)-2-pyridyl]propanoate]"
16,188.6 to 189.2 °C,"CC(C)C(=O)NCc1cccc(-c2nc(=O)c3ccccc3s2)n1 [Example 206, 2-Methyl-N-[[6-(4-oxo-4H-1,3-benzothiazin-2-yl)-2-pyridyl]methyl]propanamide]"
